According to patent US9328093B2, “Selective inhibitors of ubiquitin specific protease 7, the pharmaceutical compositions thereof and their therapeutic applications” (HYBRIGENICS SA, priority 2010, dated 2016):
Each block holds one compound with its values, some of them ahead of it.

What was measured:
USP7 = target: T1, USP7 (Homo sapiens, UniProt Q93009); experiment: USP7 assay with GST-Ub52-Flag substrate (HTRF); assay type: biochemical; conditions: USP7 200 pM
T1 construct: Full-length wild-type human USP7 and its catalytic mutant (cysteine 223 replaced by alanine, C223A) were produced as N-terminally His-tagged fusions; His (N); made in house; host or cells: Spodoptera frugiperda Sf9 (or High Five) insect cells, baculovirus pFastBac-HT-B
Experimental: (§1) For compounds 26 to 38, the in-vitro assays on USP7 and USP8 were carried out according to the following procedure
(§2) The present examples 26 to 38 makes it possible to validate the use of GST-Ub52-Flag in an assay based on the time-resolved measurement of fluorescence emitted by […] in homogenous medium.
(§3) The assay is carried out on multiwell assay plates. The plates are analyzed on a PHERAstar fluorimeter (BMG) after an overnight incubation at 4° C. (excitation 337 nm, emission 620 and 665 nm).
(§4) The reagents used were as follows: • Solution of USP7 at 200 pM and USP8 at 400 pM in 50 mM Tris HCl pH 7.6, Bovine Serum Albumin 0.05%, DTT 5 mM. • Anti-Flag-K (CIS bio international), solution at 0.2 μM in 0.8 M KF, 0.1 Bovine Serum Albumin, Tris HCl 25 mM pH 7.6. • Anti-GST antibody-XL665 conjugate (CIS bio international), solution at 2.6 μM in 0.8 M KF, 0.1% Bovine Serum Albumin, Tris HCl 25 mM pH 7.6. • GST-Ub52-flag solution at 14.75 μM & MBP_Ub52 at 37.7 μM are prepared by dilutions from the stock solution described above in 50 mM Tris HCl pH 7.6, EDTA 0.5 mM, Bovine Serum Albumin 0.05%, DTT 5 mM.
(§5) The enzyme reaction is carried out by mixing GST-Ub52-flag solution with 5 μl of USP7 solution (200 pM final) or 5 μl of USP8 (400 pM final). This mixture is incubated for one hour at room temperature on a multiwell assay plate. A 10 μl mixture of 5 μl of anti-Flag-K solution (0.2 μM) plus 5 μl of anti-GST-XL665 antibody (2.6 μM) is added to each well of the multiwell assay plate. The plate is read after an overnight incubation at 4° C. on a PHERAstar fluorimeter (BMG).
(§6) The decrease in the signal correlates with the increase in enzyme activity i.e. the cleavage of GST-Ub52-Flag substrate. The format used is therefore entirely suitable for a method of assaying an enzyme of the deubiquitinating type such as ubiquitin specific protease, but also for determining a modulator of this enzyme activity.
(§7) The same procedures as mentioned above for assaying the activity of enzymes of the deubiquitinating type are carried out but the various reaction mixtures are incubated with identical enzyme concentration, in the presence or absence of a test compounds 26 to 38. Data (mean values+/− standard deviation) were analyzed as % of control (no compound) and plotted as percentage versus the Log of the compound concentration using GraphPad (Prism).

[1] = tested on: HCT116 colon cancer cells; experiment: HCT116 cell viability and proliferation assay (MTS); assay type: cell-based; conditions: Homo sapiens, HCT-116, 72 h, HCT116, 72 hours, read-out: Cell viability (MTS): HCT116 GI50 Day3
Experimental: HCT116 colon cancer cells were obtained from ATCC (American Type Culture Collection), and maintained in Mc Coy's 5A medium containing 10% FBS, 3 mM glutamine and 1% penicillin/streptomycin. Cells were incubated at 37° C. in a humidified atmosphere containing 5% CO2.
Cell viability was assayed using the MTS technique in 96-well culture plates (CellTiter 96® Aqueous Non-Radioactive Cell Proliferation Assay, Promega) according to the manufacturer's instructions. MTS (3-(4,5-dimethyl-thiazol-2-yl)-5-(3-carboxy-methoxyphenyl)-2-(4-sulfophenyl)-2H-tetra-zolium) is a MTT-derived tetrazolium that is reduced in metabolically active cells into a soluble, cell-permeant formazan. The amount of formazan, detected by its absorbance at 492 nm is proportional to the number of living, metabolically active cells.
10^3 HCT116 cells were seeded per well. 24 hours later, the medium was changed and the cells treated in triplicate with the concentrations of each compound from 100 μM to 50 nM. The compounds were diluted in 100% DMSO, whose final concentration on cells was kept at 0.5%.
Cells were incubated with the compounds for 72 hours, and their viability then assayed by the addition of MTS for 2 hours. Absorbance at 492 nm was measured directly from the 96-well culture plates. Gl50 (Growth Inhibition 50) concentrations for each compound were calculated using a sigmoidal variable slope fit (Prism 4.0, Graphpad Softwares). Values represent mean of three independent experiments.

USP8 = target: T2, USP8 (Homo sapiens, UniProt P40818); experiment: USP8 assay with GST-Ub52-Flag substrate (HTRF); assay type: biochemical; conditions: USP8 400 pM
T2 construct: His (from pFastBac-HT vector) (N); made in house; host or cells: Sf9 or High Five insect cells, baculovirus
T2 sequence (P40818 1-1118): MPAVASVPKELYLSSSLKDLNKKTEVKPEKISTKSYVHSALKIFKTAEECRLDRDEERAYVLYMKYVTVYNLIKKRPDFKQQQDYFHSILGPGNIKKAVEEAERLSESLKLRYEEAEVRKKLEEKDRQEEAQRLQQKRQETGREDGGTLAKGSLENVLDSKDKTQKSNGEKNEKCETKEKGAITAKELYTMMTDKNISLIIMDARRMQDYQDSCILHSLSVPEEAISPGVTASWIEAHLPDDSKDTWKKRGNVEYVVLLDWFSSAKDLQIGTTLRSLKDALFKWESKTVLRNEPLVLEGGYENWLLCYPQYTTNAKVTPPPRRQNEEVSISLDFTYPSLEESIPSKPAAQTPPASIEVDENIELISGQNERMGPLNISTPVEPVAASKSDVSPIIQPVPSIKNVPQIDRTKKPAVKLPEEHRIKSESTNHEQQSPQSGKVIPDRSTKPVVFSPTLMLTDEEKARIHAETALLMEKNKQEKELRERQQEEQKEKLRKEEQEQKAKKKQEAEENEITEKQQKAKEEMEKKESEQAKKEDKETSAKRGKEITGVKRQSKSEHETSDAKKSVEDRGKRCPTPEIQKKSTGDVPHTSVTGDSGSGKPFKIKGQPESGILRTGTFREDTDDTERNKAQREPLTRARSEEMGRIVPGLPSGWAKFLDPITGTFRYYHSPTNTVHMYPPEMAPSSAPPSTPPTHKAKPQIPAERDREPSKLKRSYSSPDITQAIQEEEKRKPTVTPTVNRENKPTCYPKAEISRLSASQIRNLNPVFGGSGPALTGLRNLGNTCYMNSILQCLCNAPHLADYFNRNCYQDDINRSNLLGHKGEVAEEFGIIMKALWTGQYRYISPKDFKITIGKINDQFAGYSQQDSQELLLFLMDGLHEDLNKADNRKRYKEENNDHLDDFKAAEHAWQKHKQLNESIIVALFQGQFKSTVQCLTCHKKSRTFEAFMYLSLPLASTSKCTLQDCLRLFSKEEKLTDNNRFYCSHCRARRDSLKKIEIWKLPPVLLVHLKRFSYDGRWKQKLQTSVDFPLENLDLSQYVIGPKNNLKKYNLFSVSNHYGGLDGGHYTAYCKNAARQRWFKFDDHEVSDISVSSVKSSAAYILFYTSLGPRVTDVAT
Experimental: as §1, §2, §3, §4, §5, §6, §7

Compound: CCN(CC)CCCC(C)NC(=O)c1ccc2c(Cl)c3c(nc2c1)CCCC3 (centres unmarked) [Example 35, 9-chloro-N-(5-(diethylamino)pentan-2-yl)-5,6,7,8-tetrahydroacridine-3-carboxamide]
IC50 (USP7): 36.9 µM
GI50 [1]: 8.2 µM
IC50 (USP8): > 200 µM

Compound: CCN1CCC[C@@H]1CNC(=O)c1ccc2c(Cl)c3c(nc2c1)CCCC3 [Example 36, (R)-9-chloro-N-((1-ethylpyrrolidin-2-yl)methyl)-5,6,7,8-tetrahydroacridine-3-carboxamide]
IC50 (USP7): 44.4 µM
GI50 [1]: 9.1 µM
IC50 (USP8): > 200 µM

Compound: CCN1CCC[C@H]1CNC(=O)c1ccc2c(Cl)c3c(nc2c1)CCCC3 [Example 37, (S)-9-chloro-N-((1-ethylpyrrolidin-2-yl)methyl)-5,6,7,8-tetrahydroacridine-3-carboxamide]
IC50 (USP7): 25.9 µM
GI50 [1]: 8.7 µM
IC50 (USP8): > 200 µM

Compound: O=C(c1ccc2c(Cl)c3c(nc2c1)CCCC3)N1CCCCCC1 [Example 12, Azepan-1-yl-(9-chloro-5,6,7,8-tetrahydro-acridin-3-yl)-methanone]
GI50 [1]: 20 µM

Compound: CN(C)CC(C)(C)CNC(=O)c1ccc2c(Cl)c3c(nc2c1)CCCC3 [Example 38, 9-chloro-N-(3-(dimethylamino)-2,2-dimethylpropyl)-5,6,7,8-tetrahydroacridine-3-carboxamide]
IC50 (USP7): 49.2 µM
GI50 [1]: 11 µM
IC50 (USP8): > 200 µM

Compound: CN1CCN(CCCNC(=O)c2ccc3c(Cl)c4c(nc3c2)CCCC4)CC1 [Example 15, 9-Chloro-5,6,7,8-tetrahydro-acridine-3-carboxylic acid [3-(4-methyl-piperazin-1-yl)-propyl]-amide]
GI50 [1]: 7.4 µM

Compound: O=C(NCCN1CCCCCC1)c1ccc2c(Cl)c3c(nc2c1)CCCC3 [Example 27, N-(2-(azepan-1-yl)ethyl)-9-chloro-5,6,7,8-tetrahydroacridine-3-carboxamide]
IC50 (USP7): 15.4 µM
GI50 [1]: 10 µM
IC50 (USP8): > 200 µM

Compound: CN1CCC(N2CCN(C(=O)c3ccc4c(Cl)c5c(nc4c3)CCCC5)CC2)CC1 [Example 30, (9-chloro-5.6,7,8-tetrahydroacridine-3-yl)(4-(1-methylpiperidin-4-yl)piperazin-1-yl)methanone]
IC50 (USP7): 23 µM
GI50 [1]: 12.5 µM
IC50 (USP8): > 200 µM

Compound: O=C(c1ccc2c(Cl)c3c(nc2c1)CCCC3)N1CCC(N2CCCCC2)CC1 [Example 16, [1,4′]Bipiperidinyl-1′-yl-(9-chloro-5,6,7,8-tetrahydro-acridin-3-yl)-methanone]
GI50 [1]: 13.5 µM

Compound: CCCN1CCN(CCCNC(=O)c2ccc3c(Cl)c4c(nc3c2)CCCC4)CC1 [Example 13, 9-Chloro-5,6,7,8-tetrahydro-acridine-3-carboxylic acid [3-(4-propyl-piperazin-1-yl)-propyl]-amide]
GI50 [1]: 5.9 µM

Compound: O=C(NCCCN1CCCC1)c1ccc2c(Cl)c3c(nc2c1)CCCC3 [Example 8, 9-Chloro-5,6,7,8-tetrahydro-acridine-3-carboxylic acid (3-pyrrolidin-1-yl-propyl)-amide]
GI50 [1]: 5.9 µM

Compound: CCN(CC)CCCNC(=O)c1ccc2c(Cl)c3c(nc2c1)CCCC3 [Example 10, 9-Chloro-5,6,7,8-tetrahydro-acridine-3-carboxylic acid (3-diethylamino-propyl)-amide]
GI50 [1]: 5 µM

Compound: CN(C)CCNC(=O)c1ccc2c(Cl)c3c(nc2c1)CCCC3 [Example 11, 9-Chloro-5,6,7,8-tetrahydro-acridine-3-carboxylic acid (2-dimethylamino-ethyl)-amide]
GI50 [1]: 7.8 µM

Other lines, results leading:

GI50 [1]: 4.3 µM
Compound: CCN(CC)CCNC(=O)c1ccc2c(Cl)c3c(nc2c1)CCCC3 [Example 7, 9-Chloro-5,6,7,8-tetrahydro-acridine-3-carboxylic acid (2-diethylamino-ethyl)-amide]

GI50 [1]: 5 µM
Compound: CCN1CCCC1CNC(=O)c1ccc2c(Cl)c3c(nc2c1)CCCC3 (centres unmarked) [Example 2, 9-Chloro-5,6,7,8-tetrahydro-acridine-3-carboxylic acid (1-ethyl-pyrrolidin-2-ylmethyl)-amide]

GI50 [1]: 2 µM
Compound: Cc1cccc(CN2CCC(CNC(=O)c3ccc4c(Cl)c5c(nc4c3)CCCC5)CC2)c1 [Example 1, 9-Chloro-5,6,7,8-tetrahydro-acridine-3-carboxylic acid [1-(3-methyl-benzyl)-piperidin-4-ylmethyl]-amide]

GI50 [1]: 4 µM
Compound: CCCCN(CC)CCNC(=O)c1ccc2c(Cl)c3c(nc2c1)CCCC3 [Example 4, 9-Chloro-5,6,7,8-tetrahydro-acridine-3-carboxylic acid [2-(butyl-ethyl-amino)-ethyl]-amide]

GI50 [1]: 3.6 µM
Compound: CC1CCCC(C)N1CCCNC(=O)c1ccc2c(Cl)c3c(nc2c1)CCCC3 (centres unmarked) [Example 9, 9-Chloro-5,6,7,8-tetrahydro-acridine-3-carboxylic acid [3-(2,6-dimethyl-piperidin-1-yl)-propyl]-amide]

GI50 [1]: 3.5 µM
Compound: CCCN(CCC)CCNC(=O)c1ccc2c(Cl)c3c(nc2c1)CCCC3 [Example 3, 9-Chloro-5,6,7,8-tetrahydro-acridine-3-carboxylic acid (2-dipropylamino-ethyl)-amide]

GI50 [1]: 3.9 µM
Compound: CCCN(CCC)CCCNC(=O)c1ccc2c(Cl)c3c(nc2c1)CCCC3 [Example 6, 9-Chloro-5,6,7,8-tetrahydro-acridine-3-carboxylic acid (3-dipropylamino-propyl)-amide]
